Test results: ChEMBL document CHEMBL3885881, “DrugMatrix”

Organism: Rattus norvegicus
Assay: DrugMatrix - Regimen: Daily Repeat
Type: toxicity, organism-based, Sprague-Dawley
Parameters: regimen Daily Repeat, gender Male, age 6-8 weeks
Settings: in vivo, po, route oral GAVAGE, vehicle 100 % WATER
[1] = 0 mg/kg, 72 h, tissue Blood, dose level Control, time 3 day
[2] = 0 mg/kg, 72 h, tissue Plasma, dose level Control, time 3 day
[3] = 0 mg/kg, 120 h, tissue Blood, dose level Control, time 5 day
[4] = 0 mg/kg, 120 h, tissue Plasma, dose level Control, time 5 day
[5] = 24 mg/kg, 72 h, tissue Blood, dose level Low, time 3 day
[6] = 24 mg/kg, 72 h, tissue Plasma, dose level Low, time 3 day
[7] = 24 mg/kg, 120 h, tissue Blood, dose level Low, time 5 day
[8] = 24 mg/kg, 120 h, tissue Plasma, dose level Low, time 5 day

## COLISTIN
[1]
  BASOPHIL: 0%
  EOSINOPHIL: 0.5%
  ERYTHROCYTE COUNT: 5.8 x10E6/uL
  HEMATOCRIT: 35.07%
  LEUKOCYTE COUNT: 13.7 x10E3/uL
  MEAN CORPUSCULAR HEMOGLOBIN: 24.38 pg
  MEAN CORPUSCULAR HEMOGLOBIN CONCENTRATION: 40.28 G/DL
  MONOCYTE: 2.67%
  NEUTROPHIL: 14.5%
  PLATELET COUNT: 911.5 x10E3/uL
[2]
  ALANINE AMINOTRANSFERASE: 36.83 u/L
  ALKALINE PHOSPHATASE: 399.83 u/L
  ASPARTATE AMINOTRANSFERASE: 66 u/L
  BLOOD UREA NITROGEN: 14.67 mg/dL
  CHOLESTEROL: 66.33 mg/dL
  CREATINE PHOSPHOKINASE: 139.5 u/L
  CREATININE: 0.92 mg/dL
  GLUCOSE: 175 mg/dL
  PHOSPHORUS: 11.42 mg/dL
  TOTAL BILIRUBIN: 1.13 mg/dL
  TOTAL PROTEIN: 6.87 G/DL
[3]
  BASOPHIL: 0%
  EOSINOPHIL: 0.2%
  ERYTHROCYTE COUNT: 6.02 x10E6/uL
  LEUKOCYTE COUNT: 12.34 x10E3/uL
  LYMPHOCYTE: 83%
  MEAN CORPUSCULAR HEMOGLOBIN: 23.92 pg
  MEAN CORPUSCULAR VOLUME: 60.66 fL
  MONOCYTE: 3%
  NEUTROPHIL: 13.8%
  PLATELET COUNT: 1190.6 x10E3/uL
[4]
  ALANINE AMINOTRANSFERASE: 43 u/L
  ALKALINE PHOSPHATASE: 393 u/L
  ASPARTATE AMINOTRANSFERASE: 62.33 u/L
  CHOLESTEROL: 65.5 mg/dL
  CREATINE PHOSPHOKINASE: 130.67 u/L
  CREATININE: 0.58 mg/dL
  GLUCOSE: 180.67 mg/dL
  PHOSPHORUS: 11.28 mg/dL
  POTASSIUM: 7.05 MEQ/L
  TOTAL BILIRUBIN: 0.72 mg/dL
  TOTAL PROTEIN: 6.83 G/DL
[5]
  BASOPHIL: 0%
  EOSINOPHIL: 0%
  ERYTHROCYTE COUNT: 5.85 x10E6/uL
  LEUKOCYTE COUNT: 13.3 x10E3/uL
  LYMPHOCYTE: 81.67%
  MEAN CORPUSCULAR HEMOGLOBIN: 24.6 pg
  MEAN CORPUSCULAR HEMOGLOBIN CONCENTRATION: 40.7 G/DL
  MEAN CORPUSCULAR VOLUME: 60.33 fL
  MONOCYTE: 2.67%
  NEUTROPHIL: 15.67%
  PLATELET COUNT: 839 x10E3/uL
[6]
  ALANINE AMINOTRANSFERASE: 41.67 u/L
  ALBUMIN: 3.7 G/DL
  ALKALINE PHOSPHATASE: 316 u/L
  ASPARTATE AMINOTRANSFERASE: 67 u/L
  BLOOD UREA NITROGEN: 14.33 mg/dL
  CREATININE: 0.77 mg/dL
  GLUCOSE: 176.33 mg/dL
  PHOSPHORUS: 11.3 mg/dL
  POTASSIUM: 6.83 MEQ/L
  SODIUM: 150 MEQ/L
  TOTAL BILIRUBIN: 0.87 mg/dL
  TOTAL PROTEIN: 6.77 G/DL
[7]
  BASOPHIL: 0%
  EOSINOPHIL: 0.33%
  ERYTHROCYTE COUNT: 6.34 x10E6/uL
  HEMATOCRIT: 37.4%
  HEMOGLOBIN: 14.6 G/DL
  LEUKOCYTE COUNT: 11.93 x10E3/uL
  LYMPHOCYTE: 83%
  MEAN CORPUSCULAR HEMOGLOBIN: 23 pg
  MEAN CORPUSCULAR HEMOGLOBIN CONCENTRATION: 39.03 G/DL
  MEAN CORPUSCULAR VOLUME: 58.97 fL
  NEUTROPHIL: 14.33%
  PLATELET COUNT: 1027.67 x10E3/uL
[8]
  ALANINE AMINOTRANSFERASE: 42.67 u/L
  ALKALINE PHOSPHATASE: 411.33 u/L
  ASPARTATE AMINOTRANSFERASE: 68.33 u/L
  BLOOD UREA NITROGEN: 15.67 mg/dL
  CHOLESTEROL: 64.33 mg/dL
  CREATINE PHOSPHOKINASE: 121.67 u/L
  CREATININE: 0.63 mg/dL
  PHOSPHORUS: 10.87 mg/dL
  POTASSIUM: 6.6 MEQ/L
  SODIUM: 149.67 MEQ/L
  TOTAL BILIRUBIN: 0.73 mg/dL
  TOTAL PROTEIN: 6.7 G/DL
